Test results reported in patent US20140113904A1, “TREATMENT OF CANCER WITH TOR KINASE INHIBITORS” (SIGNAL PHARMACEUTICALS, LLC, priority 2012, published 2014).
Like-named read-outs stand apart in the source and are kept apart here.

Assays:
Type in all cases: in vivo, SCID mice
PC3 tumors [1] = test: Antitumor activity of Compound 2 in PC3 human prostate cancer xenograft model; conditions: for tumor volume reduction vs vehicle: Day 30
pS6RP = pS6RP in PC3 tumors, MSD (Compound 2); conditions: Mus musculus; for inhibition at 0.1 mg/kg: 0.1 mg/kg single oral dose; for inhibition at 0.3 mg/kg: 0.3 mg/kg single oral dose
pAKT (S473) = pAKT (S473) in PC3 tumors, MSD (Compound 2); conditions: Mus musculus; for inhibition at 0.1 mg/kg: 0.1 mg/kg single oral dose; for inhibition at 0.3 mg/kg: 0.3 mg/kg single oral dose; for inhibition at 10 mg/kg: 10 mg/kg single oral dose
pDNA-PK (S2056) = pDNA-PK (S2056) immunohistochemistry in PC3 tumors (Compound 2); conditions: 5 mg/kg QD for 6 days
CD31 = CD31 immunohistochemistry in PC3 tumors (Compound 2); conditions: 5 mg/kg oral QD for 6 days, 2 hours after last dose
PC3 tumors [2] = test: Apoptosis TUNEL assay in PC3 tumors (Compound 2); conditions: 5 mg/kg oral QD for 6 days, data not shown
[3] = 0.5 h, read-out: PD Marker Inhibition (%) pS6RP
[4] = 1 h, read-out: PD Marker Inhibition (%) pS6RP
[5] = 3 h, read-out: PD Marker Inhibition (%) pS6RP
[6] = 6 h, read-out: PD Marker Inhibition (%) pS6RP
[7] = 10 h, read-out: PD Marker Inhibition (%) pS6RP
[8] = 24 h, read-out: PD Marker Inhibition (%) pS6RP
[9] = 0.5 h, read-out: PD Marker Inhibition (%) pAKT (S473)
[10] = 1 h, read-out: PD Marker Inhibition (%) pAKT (S473)
[11] = 3 h, read-out: PD Marker Inhibition (%) pAKT (S473)
[12] = 6 h, read-out: PD Marker Inhibition (%) pAKT (S473)
[13] = 10 h, read-out: PD Marker Inhibition (%) pAKT (S473)
[14] = 24 h, read-out: PD Marker Inhibition (%) pAKT (S473)

For `CCN1C(=O)CNc2ncc(-c3ccc(-c4nc[nH]n4)nc3C)nc21` [Compound 2, 1-ethyl-7-(2-methyl-6-(1H-1,2,4-triazol-3-yl)pyridin-3-yl)-3,4-dihydropyrazino[2,3-b]pyrazin-2(1H)-one], the “tumor volume reduction vs vehicle” value (PC3 tumors [1]; 0.5 mg/kg BID) was 57%, the “tumor volume reduction vs vehicle” value (PC3 tumors [1]; 1 mg/kg BID) was 66% and the “tumor volume reduction vs vehicle” value (PC3 tumors [1]; 1 mg/kg QD) was 55%. The tumor inhibition (PC3 tumors [1]; 1 mg/kg QD, Day 30 (BID/QD study)) was “the same as 0.5 mg/kg BID”, the “tumor volume reduction vs vehicle” value (PC3 tumors [1]; 2 mg/kg QD) was 63% and the “tumor volume reduction vs vehicle” value (PC3 tumors [1]; 5 mg/kg QD) was 76%. It also gave a lowest efficacious dose (PC3 tumors [1]; BID, approximately 65% tumor volume inhibition) of 1 mg/kg, an inhibition at 0.1 mg/kg (pS6RP; [3]) of 45.7% and an inhibition at 0.1 mg/kg (pS6RP; [4]) of 38.2%. It also gave an inhibition at 0.1 mg/kg (pS6RP; [5]) of 27.2%, an inhibition at 0.1 mg/kg (pS6RP; [6]) of 23.3% and an inhibition at 0.1 mg/kg (pS6RP; [7]) of 17.6%. For the same compound, the inhibition at 0.1 mg/kg (pS6RP; [8]) was 0%, the inhibition at 0.3 mg/kg (pS6RP; [3]) was 69.8% and the inhibition at 0.3 mg/kg (pS6RP; [4]) was 79.6%. It also gave an inhibition at 0.3 mg/kg (pS6RP; [5]) of 73.5%, an inhibition at 0.3 mg/kg (pS6RP; [6]) of 67.3% and an inhibition at 0.3 mg/kg (pS6RP; [7]) of 57.9%. The inhibition at 0.3 mg/kg (pS6RP; [8]) was 33.3%, the inhibition at 1 mg/kg (pS6RP; 1 mg/kg single dose, through 10 hours, read-out: inhibition of pS6RP in tumor) was ~80% and the inhibition at 1 mg/kg (pS6RP; 1 mg/kg single oral dose, 1 h, read-out: PD Marker Inhibition (%) pS6RP) was 84.6%. The inhibition at 1 mg/kg (pS6RP; 1 mg/kg single oral dose, 3 h, read-out: PD Marker Inhibition (%) pS6RP) was 89.5%, the inhibition at 1 mg/kg (pS6RP; 1 mg/kg single oral dose, 6 h, read-out: PD Marker Inhibition (%) pS6RP) was 82.8% and the inhibition at 1 mg/kg (pS6RP; 1 mg/kg single oral dose, 10 h, read-out: PD Marker Inhibition (%) pS6RP) was 78.7%. The inhibition at 1 mg/kg (pS6RP; 1 mg/kg single oral dose, 24 h, read-out: PD Marker Inhibition (%) pS6RP) was 0%, the inhibition at 10 mg/kg (pS6RP; 10 mg/kg single dose, through 24 hours, read-out: inhibition of both PD markers (pS6RP, pAKT (S473))) was ≥ 80% and the inhibition at 10 mg/kg (pS6RP; 10 mg/kg single oral dose, 1 h, read-out: PD Marker Inhibition (%) pS6RP) was 85.3%. The inhibition at 10 mg/kg (pS6RP; 10 mg/kg single oral dose, 3 h, read-out: PD Marker Inhibition (%) pS6RP) was 91.3%, the inhibition at 10 mg/kg (pS6RP; 10 mg/kg single oral dose, 6 h, read-out: PD Marker Inhibition (%) pS6RP) was 93.5% and the inhibition at 10 mg/kg (pS6RP; 10 mg/kg single oral dose, 10 h, read-out: PD Marker Inhibition (%) pS6RP) was 93.7%. For the same compound, the inhibition at 10 mg/kg (pS6RP; 10 mg/kg single oral dose, 24 h, read-out: PD Marker Inhibition (%) pS6RP) was 93.2%, the inhibition at 0.1 mg/kg (pAKT (S473); [9]) was 50% and the inhibition at 0.1 mg/kg (pAKT (S473); [10]) was 25.1%. It also gave an inhibition at 0.1 mg/kg (pAKT (S473); [11]) of 15.3%, an inhibition at 0.1 mg/kg (pAKT (S473); [12]) of 14.2% and an inhibition at 0.1 mg/kg (pAKT (S473); [13]) of 2.5%. The inhibition at 0.1 mg/kg (pAKT (S473); [14]) was 0%, the inhibition at 0.3 mg/kg (pAKT (S473); [9]) was 77.2% and the inhibition at 0.3 mg/kg (pAKT (S473); [10]) was 70.7%. For the same compound, the inhibition at 0.3 mg/kg (pAKT (S473); [11]) was 52.9%, the inhibition at 0.3 mg/kg (pAKT (S473); [12]) was 42.2% and the inhibition at 0.3 mg/kg (pAKT (S473); [13]) was 23%. It also gave an inhibition at 0.3 mg/kg (pAKT (S473); [14]) of 9.6%, an inhibition at 1 mg/kg (pAKT (S473); 1 mg/kg single dose, through 10 hours, read-out: inhibition of pAKT (S473) in tumor) of ~65% and an inhibition at 1 mg/kg (pAKT (S473); 1 mg/kg single oral dose, 1 h, read-out: PD Marker Inhibition (%) pAKT (S473)) of 79.6%. It also gave an inhibition at 1 mg/kg (pAKT (S473); 1 mg/kg single oral dose, 3 h, read-out: PD Marker Inhibition (%) pAKT (S473)) of 65.1%, an inhibition at 1 mg/kg (pAKT (S473); 1 mg/kg single oral dose, 6 h, read-out: PD Marker Inhibition (%) pAKT (S473)) of 69.9% and an inhibition at 1 mg/kg (pAKT (S473); 1 mg/kg single oral dose, 10 h, read-out: PD Marker Inhibition (%) pAKT (S473)) of 65.5%. The inhibition at 1 mg/kg (pAKT (S473); 1 mg/kg single oral dose, 24 h, read-out: PD Marker Inhibition (%) pAKT (S473)) was 19%, the inhibition at 10 mg/kg (pAKT (S473); [10]) was 87.6% and the inhibition at 10 mg/kg (pAKT (S473); [11]) was 88.3%. It also gave an inhibition at 10 mg/kg (pAKT (S473); [12]) of 86.9%, an inhibition at 10 mg/kg (pAKT (S473); [13]) of 86% and an inhibition at 10 mg/kg (pAKT (S473); [14]) of 79.8%. The “reduction in threshold area positive for pDNA-PK (S2056) vs vehicle” value (pDNA-PK (S2056); 2 hours after the last dose) was 98%, the inhibition at 5 mg/kg (pDNA-PK (S2056); Mus musculus, through 24 hours after the last dose, read-out: pDNA-PK (S2056) inhibition (normalized to total DNA-PKcs)) was ~90% and the “reduction of CD31 positive blood vessels vs vehicle” value (CD31) was 50%. The “number of TUNEL-positive cells vs vehicle” value (PC3 tumors [2]) was “No significant change”.
